Measurements published in US4578400A, “Therapeutic composition and method for treatment of cardiovascular diseases” (priority 1982, dated 1986).

Key:
[1] = system: chloroform-induced arrhythmia (ventricular fibrillation); test: Effect on chloroform-induced arrhythmia; assay type: in vivo, male ddy mice; conditions: for Percent occurrence of ventricular fibrillation: control 100; for anti-arrhythmic potency compared with lidocaine (in words): 100 mg/kg oral vs lidocaine 10 mg/kg i.p.
From the text: When they stopped breathing, they were thoracotomized to examine the occurrence of ventricular fribrillation. The results are noted in Table 2 as percent occurrence of ventricular fibrillation.

[2] = Acute toxicity; conditions: one week observation
From the text: Male ddy mice weighing about 25 g were divided into groups of 10 animals and orally administered once with 3 g/kg of 5--HDA, 5--HDA--Na, 5--HDAE, 5--HDA--DHP or δ-DL, or intraperitoneally injected once with 1 g/kg of said compounds.

[3] = Solubility (physicochemical properties, Table 1)
[4] = system: ouabain induced arrhythmia; test: Effect on ouabain induced arrhythmia; assay type: in vivo, male hartley guinea pigs; conditions: for relative time for extrasystole to occur / relative time for ventricular fibrillation to occur / relative time for cardiac arrest to occur: control = 100; for relative time for ventricular fibrillation to occur: *P < 0.05; for antiarrhythmic effects (in words): ouabain induced arrhythmia
From the text: Effect on ouabain induced arrhythmia
The procedure described in Matsubara et al. (Folia Pharmacologica Japonica, 72, 557-571, 1976) was followed.
Male hartley guinea pigs were divided into groups of 8 animals and anesthetized with intraperitoneal urethane. Three groups were orally administered 5--HDA--Na, 5--HDAE and 5--HDA--DHP dissolved in distilled water. Another group was intravenously injected with 5--HDA--Na dissolved in physiological saline. One group was orally administered δ-DL emulsified in 5% aqueous arabic gum solution. One group was injected intravenously with lidocaine dissolved in physiological saline. For the respective routes of administration, control groups were administered the solvents used in administration of the test compounds. Thirty minutes after the oral administration and one minute after the intravenous injection, ouabain was infused into the jugular vein at a rate of 5 μg/kg/min until extrasystole, ventricular fibrillation and cardiac arrest appeared on a standard limb lead II of ECG. The results are shown in Table 3, with the time necessary for the respective symptoms to occur in the control groups taken as 100.

[5] = Lowering serum lipid levels in Triton-induced hyperlipidemic rats; assay type: in vivo, male Wistar rats; conditions: for inhibition rate, total cholesterol (serum) / inhibition rate, triglyceride (serum): 100 mg/kg oral, four times, against control, 10 hours after Triton WR-1339, *P < 0.05; for antilipidemic effects compared with Clofibrate (in words): 100 mg/kg, oral
Experimental: After 10 hours, blood samples were drawn to determine the serum levels of total cholesterol and triglyceride.

[6] = target: T1, 3-hydroxy-3-methylglutaryl coenzyme A (HMG-Co A) reductase (Rattus norvegicus, UniProt P51639); test: Inhibition of HMG-CoA reductase activity; assay type: biochemical, rat (liver microsome); conditions: rat liver microsome; read-out: IC30 (amount necessary for inhibiting the enzymatic activity by 30%)
T1 sequence (P51639 1-887): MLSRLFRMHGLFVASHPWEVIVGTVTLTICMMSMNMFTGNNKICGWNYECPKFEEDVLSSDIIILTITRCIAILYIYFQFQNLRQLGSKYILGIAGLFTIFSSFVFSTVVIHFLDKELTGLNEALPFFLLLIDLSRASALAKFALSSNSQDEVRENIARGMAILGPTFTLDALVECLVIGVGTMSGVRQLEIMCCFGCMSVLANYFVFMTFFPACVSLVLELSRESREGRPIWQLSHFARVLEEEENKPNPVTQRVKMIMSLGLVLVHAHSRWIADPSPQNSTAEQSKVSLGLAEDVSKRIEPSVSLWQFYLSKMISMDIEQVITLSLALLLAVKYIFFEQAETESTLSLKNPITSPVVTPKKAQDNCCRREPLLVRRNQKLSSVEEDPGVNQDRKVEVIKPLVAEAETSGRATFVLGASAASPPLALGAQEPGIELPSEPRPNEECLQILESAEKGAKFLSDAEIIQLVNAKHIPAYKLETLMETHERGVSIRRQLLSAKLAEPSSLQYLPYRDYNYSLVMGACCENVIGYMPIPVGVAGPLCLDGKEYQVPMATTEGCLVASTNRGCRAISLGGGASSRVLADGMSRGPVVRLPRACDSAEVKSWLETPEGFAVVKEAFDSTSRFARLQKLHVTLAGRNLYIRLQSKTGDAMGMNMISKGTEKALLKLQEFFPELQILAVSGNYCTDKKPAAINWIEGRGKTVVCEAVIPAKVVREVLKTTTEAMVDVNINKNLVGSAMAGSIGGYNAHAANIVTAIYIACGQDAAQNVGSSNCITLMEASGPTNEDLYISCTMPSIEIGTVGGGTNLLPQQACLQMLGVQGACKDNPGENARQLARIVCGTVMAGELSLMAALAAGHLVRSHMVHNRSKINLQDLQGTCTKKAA
From the text: Inhibition of the activity of 3-hydroxy-3-methylglutaryl coenzyme A (HMG-Co A) reductase

[7] = system: ventricular fibrillation after coronary artery ligation; test: Antiarrhythmic effects on myocardial infarction (coronary ligation); assay type: in vivo, dogs; conditions: before ligation = 100, control 41
From the text: Antiarrhythmic effects on myocardial infarction
The method described by Shinohara (Jap. Circul. J., 32, 1269-1281, 1968) was used. Dogs were divided into groups of 5 animals, anesthetized with intravenous pentobarbital and were thoracotomized under artificial respiration, and a platinum bipolar electrode was inserted on the wall of the right atrium. Then the sinus node was crushed and the animals were subjected to pacing (2.5 Hz, 3 msec, 3.5-8 V) with an electronic stimulator. The left anterior descending coronary artery was doubly ligated at a site 2 cm away from its origin (A. S. Harris, Circulation, 1, 1318, 1950). Then 5--HDA--Na and lidocaine were injected into the femoral vein of the respective dogs. Using an electrode inserted in an ischemic zone in the left ventricle, the animals were given 15 to 20 successive electrical shocks before the ligation and 30 minutes after the ligation and administration. The threshold level necessary for inducing ventricular fibrillation was determined for each group of animals and shown in Table 4, with the values before the ligation taken as 100.

[8] = system: chloroform-induced arrhythmia (ventricular fibrillation); conditions: stated without own data; cited from earlier work
[9] = Lowering serum cholesterol levels in hyperlipidemic rabbits; assay type: in vivo, male Japanese white rabbits; conditions: 100 mg/kg oral daily for 7 days
From the text: Male Japanese white rabbits weighing about 2.5 kg were fed on a solid diet containing 1% cholesterol (RC-4, Nippon Crea Co., Ltd.) for 10 weeks until hypercholesterolemia fully developed. The rabbits were then divided into groups of 5 animals, and 5--HDA--Na or δ-DL was orally admininistered daily for 7 days, either as a solution or as an emulsion in 5% aqueous arabic gum. Three hours after the last administration, blood was drawn to determine the serum level of cholesterol.

[10] = 100 mg/kg, oral, 15 min before chloroform, *P < 0.05
[11] = oral, 100 mg/kg, *P < 0.05 where starred

Row | SMILES | anti-arrhythmic potency compared with lidocaine (in words) [1] | anti-arrhythmic effects (in words) ([1]; 100 mg/kg, oral) | Percent occurrence of ventricular fibrillation [1, 10] | acute toxicity: abnormality ([2]; 1 g/kg intraperitoneal once) | acute toxicity: death ([2]; 1 g/kg intraperitoneal once) | acute toxicity: abnormality ([2]; 3 g/kg oral once) | acute toxicity: death ([2]; 3 g/kg oral once) | solubility in acetone [3] | solubility in benzene [3] | solubility in chloroform [3] | solubility in methanol [3] | solubility in water [3] | relative time for extrasystole to occur ([4]; oral, 100 mg/kg) | relative time for ventricular fibrillation to occur ([4]; oral, 100 mg/kg) | relative time for cardiac arrest to occur [4, 11] | antiarrhythmic effects (in words) [4] | inhibition rate, total cholesterol (serum) [5] [%] | inhibition rate, triglyceride (serum) [5] [%] | antilipidemic effects compared with Clofibrate (in words) [5] | also measured
1 | CCCCCC(O)CCCC(=O)O (stereo not shown) [5-HDA, 5-hydroxy-decanoic acid] | more potent than lidocaine | significant anti-arrhythmic effects | 30 | no abnormality occurred | no animal died | no abnormality occurred | no animal died | easily | easily | easily | easily | sparingly |  |  |  |  |  |  |  | Percent occurrence of ventricular fibrillation ([1]; 50 mg/kg, oral, 15 min before chloroform): 60
2 | CCCCCC(O)CCCC(=O)OCC(O)CO (stereo not shown) [5-HDA-DHP, 2',3'-dihydroxy-propyl-5-hydroxydecanoate] | more potent than lidocaine | significant anti-arrhythmic effects | 20 | no abnormality occurred | no animal died | no abnormality occurred | no animal died | easily |  | easily | easily | soluble | 193 | 139 | 122 | significant antiarrhythmic effects | 19 | 18 | equipotent to or stronger than the effect of the known anti-lipidemic agent, Clofibrate | 
3 | CCCCCC(O)CCCC(=O)OCC (stereo not shown) [5-HDAE, Ethyl-5-hydroxy-decanoate] | more potent than lidocaine | significant anti-arrhythmic effects | 30 | no abnormality occurred | no animal died | no abnormality occurred | no animal died | easily | easily | easily | easily | sparingly | 151 | 146 | 132 | significant antiarrhythmic effects | 19 | 17 | equipotent to or stronger than the effect of the known anti-lipidemic agent, Clofibrate | 
4 | CCOC(=O)C(C)(C)Oc1ccc(Cl)cc1 [Clofibrate, reference compound] |  |  |  |  |  |  |  |  |  |  |  |  |  |  |  |  | 14 | 16 |  | 
5 | CC[C@H](C)C(=O)O[C@H]1CCC=C2C=C[C@H](C)[C@H](CC[C@@H]3C[C@@H](O)CC(=O)O3)[C@H]21 [Compactin, reference compound] |  |  |  |  |  |  |  |  |  |  |  |  |  |  |  |  |  |  |  | IC30 [6]: 30 µM
6 | CCN(CC)CC(=O)Nc1c(C)cccc1C [Lidocaine, reference compound] |  |  |  |  |  |  |  |  |  |  |  |  |  |  |  |  |  |  |  | Percent occurrence of ventricular fibrillation ([1]; 10 mg/kg, intraperitoneally 5 minutes before chloroform): 40; relative time for cardiac arrest to occur ([4]; i.v., 10 mg/kg): 118; relative time for extrasystole to occur ([4]; i.v., 10 mg/kg): 133; relative time for ventricular fibrillation to occur ([4]; i.v., 10 mg/kg): 129; Threshold level for inducing ventricular fibrillation, 30 min after ligation ([7]; 0.3 mg/kg i.v.): 68; Threshold level for inducing ventricular fibrillation, 30 min after ligation ([7]; 1.0 mg/kg i.v., *P < 0.05): 84; effectiveness by oral administration (in words) [8]: not effective by oral administration
7 | CCCCCC1CCCC(=O)O1 (stereo not drawn) [δ-DL, δ-decalactone] | more potent than lidocaine | significant anti-arrhythmic effects | 30 | no abnormality occurred | no animal died | no abnormality occurred | no animal died | easily | easily | easily | easily | insoluble | 157 | 137 | 140 | significant antiarrhythmic effects | 23 | 11 | equipotent to or stronger than the effect of the known anti-lipidemic agent, Clofibrate | serum level of total cholesterol (in words) [9]: lowered the serum level of total cholesterol; Total serum cholesterol ([9]; 3 h after last administration, control 1,394, *P < 0.05): 1,141 mg/dl; solubility in hexane ([3]; hexane): easily
